Assay results: ChEMBL document CHEMBL1201862, “PubChem BioAssay data set” (2004)
Activity calls are given as the source filed them.

Tests used:
[1] = molecular target: T1, Estrogen receptor (Homo sapiens, UniProt P03372);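 further: potency for inhibiting coactivator peptide recruitment to the receptor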
T1 sequence (P03372 whole entry): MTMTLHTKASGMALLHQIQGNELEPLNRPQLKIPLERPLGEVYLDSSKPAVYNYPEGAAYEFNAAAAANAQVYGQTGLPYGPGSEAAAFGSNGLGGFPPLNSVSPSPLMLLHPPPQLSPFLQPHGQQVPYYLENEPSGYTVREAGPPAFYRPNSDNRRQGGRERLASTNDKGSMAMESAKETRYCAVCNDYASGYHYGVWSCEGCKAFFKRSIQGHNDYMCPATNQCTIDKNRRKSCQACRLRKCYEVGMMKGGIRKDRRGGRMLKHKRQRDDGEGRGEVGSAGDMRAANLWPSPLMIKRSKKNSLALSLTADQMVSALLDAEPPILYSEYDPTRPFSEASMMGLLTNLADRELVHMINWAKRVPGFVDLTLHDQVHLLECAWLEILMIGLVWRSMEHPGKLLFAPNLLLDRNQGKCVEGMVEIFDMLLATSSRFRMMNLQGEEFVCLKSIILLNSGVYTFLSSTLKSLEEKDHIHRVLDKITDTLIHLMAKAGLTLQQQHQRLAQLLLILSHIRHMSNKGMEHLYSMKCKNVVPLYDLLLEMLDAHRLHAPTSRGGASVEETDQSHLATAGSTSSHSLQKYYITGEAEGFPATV

[2] = molecular target: Genome polyprotein (dengue virus type 2, UniProt P29990); assay: flavivirus cap methylation enzyme inhibition – biochemical, confirmation dose response, primary screen (AID 588689); type: functional
[3] = molecular target: T2, Coagulation factor XII (Homo sapiens, UniProt P00748); type: functional;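 further: activated factor XIIa alpha cleaving a fluorogenic AMC peptide substrate; inhibitor potency from loss of enzyme activity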
T2 sequence (P00748 whole entry): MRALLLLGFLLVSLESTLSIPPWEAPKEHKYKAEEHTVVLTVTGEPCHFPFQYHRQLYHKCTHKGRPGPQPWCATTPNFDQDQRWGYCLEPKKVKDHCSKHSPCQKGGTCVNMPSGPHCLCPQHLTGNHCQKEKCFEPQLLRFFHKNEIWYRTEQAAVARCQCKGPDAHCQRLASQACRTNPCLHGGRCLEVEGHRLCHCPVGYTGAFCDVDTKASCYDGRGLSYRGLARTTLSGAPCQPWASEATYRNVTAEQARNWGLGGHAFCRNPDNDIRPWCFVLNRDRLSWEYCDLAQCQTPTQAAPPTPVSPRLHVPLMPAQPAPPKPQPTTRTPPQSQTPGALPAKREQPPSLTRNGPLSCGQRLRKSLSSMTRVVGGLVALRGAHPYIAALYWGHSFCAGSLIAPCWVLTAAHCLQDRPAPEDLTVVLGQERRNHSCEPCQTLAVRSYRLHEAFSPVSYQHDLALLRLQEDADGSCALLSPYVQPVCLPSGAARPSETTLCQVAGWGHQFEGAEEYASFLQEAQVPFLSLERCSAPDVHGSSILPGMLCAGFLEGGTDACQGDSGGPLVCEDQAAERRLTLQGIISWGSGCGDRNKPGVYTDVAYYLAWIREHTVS

[4] = molecular target: T3, RNA-binding protein pos-1 (Caenorhabditis elegans, UniProt G5EF15); assay: disruptors of C. elegans POS-1 RNA interaction – biochemical, fluorescence polarization, dose response (AID 1964);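 further: purified POS-1 fused to maltose binding protein made in E. coli; potency of compounds blocking POS-1 binding to fluorescent RNA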
T3 sequence (G5EF15 whole entry): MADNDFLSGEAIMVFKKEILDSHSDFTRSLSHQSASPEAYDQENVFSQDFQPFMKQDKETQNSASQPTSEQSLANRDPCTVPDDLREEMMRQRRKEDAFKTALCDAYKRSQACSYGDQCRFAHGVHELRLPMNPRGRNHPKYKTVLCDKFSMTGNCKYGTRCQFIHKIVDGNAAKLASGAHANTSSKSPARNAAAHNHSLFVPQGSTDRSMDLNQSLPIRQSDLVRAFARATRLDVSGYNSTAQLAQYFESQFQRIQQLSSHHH

[5] = molecular target: T4, Zinc finger protein mex-5 (Caenorhabditis elegans, UniProt Q9XUB2); assay: potency of MEX-5 RNA-binding blockers – biochemical, C. elegans, fluorescence polarization, dose response (AID 1960)
T4 sequence (Q9XUB2 whole entry): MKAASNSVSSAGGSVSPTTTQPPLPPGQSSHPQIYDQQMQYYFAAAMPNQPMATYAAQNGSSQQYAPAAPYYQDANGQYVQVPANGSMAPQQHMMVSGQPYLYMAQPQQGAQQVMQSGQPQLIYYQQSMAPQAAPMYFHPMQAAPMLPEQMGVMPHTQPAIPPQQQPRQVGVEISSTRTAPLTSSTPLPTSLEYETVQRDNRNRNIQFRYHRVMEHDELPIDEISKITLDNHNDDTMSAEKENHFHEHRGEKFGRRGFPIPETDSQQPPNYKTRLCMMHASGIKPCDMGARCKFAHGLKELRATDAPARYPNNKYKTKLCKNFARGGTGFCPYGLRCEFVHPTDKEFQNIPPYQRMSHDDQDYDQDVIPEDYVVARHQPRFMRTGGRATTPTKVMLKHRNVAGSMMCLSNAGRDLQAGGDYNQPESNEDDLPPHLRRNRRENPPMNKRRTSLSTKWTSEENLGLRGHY

[6] = molecular target: T5, Tyrosine-protein phosphatase non-receptor type 7 (Homo sapiens, UniProt P35236); assay: redox-active compounds inhibiting HePTP phosphatase – biochemical, fluorescence, mechanism study (AID 2068); type: functional
T5 sequence (P35236 whole entry): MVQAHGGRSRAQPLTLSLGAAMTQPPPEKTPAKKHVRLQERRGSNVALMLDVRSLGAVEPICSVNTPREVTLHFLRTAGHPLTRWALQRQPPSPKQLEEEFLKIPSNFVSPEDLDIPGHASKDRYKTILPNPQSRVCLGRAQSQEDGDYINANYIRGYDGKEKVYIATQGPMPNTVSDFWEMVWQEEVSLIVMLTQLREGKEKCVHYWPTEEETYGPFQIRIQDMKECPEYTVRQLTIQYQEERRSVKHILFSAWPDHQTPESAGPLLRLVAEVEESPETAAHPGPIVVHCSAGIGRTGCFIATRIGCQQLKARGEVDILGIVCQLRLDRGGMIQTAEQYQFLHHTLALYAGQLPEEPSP

[7] = molecular target: T6, Estrogen receptor beta (Homo sapiens, UniProt Q92731); assay: blockers of SRC-3 recruitment to ERβ – biochemical, ELISA, streptavidin-HRP readout, orthogonal assay, confirmation (AID 1060)
[8] = molecular target: Induced myeloid leukemia cell differentiation protein Mcl-1 (Homo sapiens, UniProt Q07820); type: functional
[9] = molecular target: X-box-binding protein 1 (Homo sapiens, UniProt P17861); type: functional, Cricetulus griseus;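 further: confirmatory dose-response counter-screen serving a CHOP assay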
[10] = molecular target: Aspartyl aminopeptidase (Plasmodium falciparum 3D7, UniProt Q8I2J3)
[11] = molecular target: Procathepsin L (Homo sapiens, UniProt P07711)
[12] = molecular target: T7, Nucleotide-binding oligomerization domain-containing protein 1 (Homo sapiens, UniProt Q9Y239); assay: blockers of NOD1 pathway activity – revised, SAR follow-up (AID 2333); type: functional
T7 sequence (Q9Y239 whole entry): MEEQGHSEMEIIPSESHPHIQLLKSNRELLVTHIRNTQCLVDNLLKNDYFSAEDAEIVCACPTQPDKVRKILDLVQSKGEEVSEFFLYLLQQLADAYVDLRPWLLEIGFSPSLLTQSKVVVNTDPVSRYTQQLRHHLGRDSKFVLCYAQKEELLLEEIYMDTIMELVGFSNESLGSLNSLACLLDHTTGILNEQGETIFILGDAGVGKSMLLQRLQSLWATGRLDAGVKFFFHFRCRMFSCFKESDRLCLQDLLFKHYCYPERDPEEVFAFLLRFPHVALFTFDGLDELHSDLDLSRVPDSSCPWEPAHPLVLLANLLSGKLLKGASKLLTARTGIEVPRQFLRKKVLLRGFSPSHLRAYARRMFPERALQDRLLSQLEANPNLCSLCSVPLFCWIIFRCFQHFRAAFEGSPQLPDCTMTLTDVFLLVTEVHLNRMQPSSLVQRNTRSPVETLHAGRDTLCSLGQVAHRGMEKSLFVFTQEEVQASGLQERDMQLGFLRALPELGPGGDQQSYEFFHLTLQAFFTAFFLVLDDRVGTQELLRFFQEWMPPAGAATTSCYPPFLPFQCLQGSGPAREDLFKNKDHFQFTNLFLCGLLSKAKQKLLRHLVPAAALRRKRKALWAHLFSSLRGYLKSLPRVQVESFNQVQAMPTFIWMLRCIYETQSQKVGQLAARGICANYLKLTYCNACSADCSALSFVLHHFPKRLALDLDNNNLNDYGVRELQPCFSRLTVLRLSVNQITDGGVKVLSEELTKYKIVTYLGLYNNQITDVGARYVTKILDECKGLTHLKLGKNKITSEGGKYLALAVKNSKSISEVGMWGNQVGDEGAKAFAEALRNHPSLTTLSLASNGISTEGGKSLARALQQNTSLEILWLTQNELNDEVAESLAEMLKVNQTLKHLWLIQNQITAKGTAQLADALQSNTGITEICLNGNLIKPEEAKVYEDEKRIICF

[13] = tested on: HEK293; assay: cells; settings: Homo sapiens;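 further: cells exposed to compound for 14 hours overnight before viability readout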
[14] = molecular target: Nucleotide-binding oligomerization domain-containing protein 2 (Homo sapiens, UniProt Q9HC29); assay: PubChem AID 2334; type: functional
[15] = molecular target: Tumor necrosis factor (Homo sapiens, UniProt P01375); assay: analog potency on TNFa NF-kB signaling – cell-based, revised, SAR follow-up (AID 2337); type: functional
[16] = molecular target: Acyl-homoserine lactone acylase PvdQ (Pseudomonas aeruginosa (strain LESB58), UniProt Q9I194); assay: PvdQ acylase enzyme activity blockers – biochemical, fluorescence, plate reader and imaging, cherry-picks, dose response (AID 493231)
[17] = molecular target: Protein Tat (Human immunodeficiency virus type 1 group M subtype B (isolate HXB2)(HIV-1), UniProt P04608); type: functional;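 further: tat binding to TAR RNA read out by fluorescence polarization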
[18] = viability loss in THP-1 monocytes – THP-1 cells, cytotoxicity control for Vif-APOBEC3G degradation inhibitor project, dose response (AID 1117359); type: functional; settings: THP-1
[19] = molecular target: Ephrin type-A receptor 4 (Mus musculus, UniProt Q03137); assay: EphA4 ligand-binding antagonists – biochemical, colorimetric, mouse EphA4, primary screen (AID 689); type: functional
[20] = molecular target: T6, Estrogen receptor beta
[21] = cells; type: functional
[22] = viability of PTEN-deleted HCT116 cells – cell-based, HCT116 PTEN knockout, dose response (AID 1047); type: functional;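 further: HCT116 colon tumor cells with PTEN knocked out; cells exposed to compound for 60 hours before readout; potency for loss of cell viability measured by luminescence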
[23] = tested on: INS1; assay: INS-1E survival protection against cytokine death – cell-based, luminescence, retest, dose response (AID 449756); type: functional; settings: Rattus norvegicus;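 further: cell death triggered by IL-1 beta plus TNF-alpha plus IFN-gamma mixture; protective hits raise ATP signal compared with cytokine alone wells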
[24] = viability of HCT116 lacking mutant beta-catenin – cell-based, human colon tumor, dose response (AID 1045); type: functional;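 further: HCT116 colon tumor cells with beta catenin knocked out; cells exposed to compound for 60 hours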
[25] = viability of uninfected HEp-2 cells – cell-based, HTS, cytotoxicity control for RSV inhibitor project, dose response (AID 2410); type: functional; settings: human respiratory syncytial virus
[26] = cells
[27] = antiviral protection against BTV-induced cell death – arbovirus, BSR cells, confirmation (AID 1250); type: functional;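 further: protection from viral cytopathic effect measured as cell viability by ATP luminescence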

Chain of Tumor necrosis factor (P01375 whole entry): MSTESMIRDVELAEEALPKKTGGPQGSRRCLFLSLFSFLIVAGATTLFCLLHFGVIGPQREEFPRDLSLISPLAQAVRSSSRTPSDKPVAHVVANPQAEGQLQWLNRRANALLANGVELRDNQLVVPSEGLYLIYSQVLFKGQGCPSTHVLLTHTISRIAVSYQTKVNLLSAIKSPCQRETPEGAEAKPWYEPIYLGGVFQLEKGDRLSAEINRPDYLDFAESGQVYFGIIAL
T6 sequence (Q92731 whole entry): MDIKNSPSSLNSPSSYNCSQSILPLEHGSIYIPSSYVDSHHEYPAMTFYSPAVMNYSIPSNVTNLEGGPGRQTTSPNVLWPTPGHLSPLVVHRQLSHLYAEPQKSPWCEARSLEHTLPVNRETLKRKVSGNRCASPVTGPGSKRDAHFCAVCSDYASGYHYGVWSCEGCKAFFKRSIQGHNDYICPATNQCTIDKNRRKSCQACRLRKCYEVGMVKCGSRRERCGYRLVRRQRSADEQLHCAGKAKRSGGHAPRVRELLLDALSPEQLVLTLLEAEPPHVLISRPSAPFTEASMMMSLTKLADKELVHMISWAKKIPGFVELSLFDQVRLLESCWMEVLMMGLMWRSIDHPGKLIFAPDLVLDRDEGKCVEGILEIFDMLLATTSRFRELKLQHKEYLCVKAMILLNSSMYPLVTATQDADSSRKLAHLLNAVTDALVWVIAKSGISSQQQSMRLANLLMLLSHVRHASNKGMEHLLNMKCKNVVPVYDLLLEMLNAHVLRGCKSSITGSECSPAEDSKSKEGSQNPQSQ
Chain of Nucleotide-binding oligomerization domain-containing protein 2 (Q9HC29 whole entry, the tested form may be a part): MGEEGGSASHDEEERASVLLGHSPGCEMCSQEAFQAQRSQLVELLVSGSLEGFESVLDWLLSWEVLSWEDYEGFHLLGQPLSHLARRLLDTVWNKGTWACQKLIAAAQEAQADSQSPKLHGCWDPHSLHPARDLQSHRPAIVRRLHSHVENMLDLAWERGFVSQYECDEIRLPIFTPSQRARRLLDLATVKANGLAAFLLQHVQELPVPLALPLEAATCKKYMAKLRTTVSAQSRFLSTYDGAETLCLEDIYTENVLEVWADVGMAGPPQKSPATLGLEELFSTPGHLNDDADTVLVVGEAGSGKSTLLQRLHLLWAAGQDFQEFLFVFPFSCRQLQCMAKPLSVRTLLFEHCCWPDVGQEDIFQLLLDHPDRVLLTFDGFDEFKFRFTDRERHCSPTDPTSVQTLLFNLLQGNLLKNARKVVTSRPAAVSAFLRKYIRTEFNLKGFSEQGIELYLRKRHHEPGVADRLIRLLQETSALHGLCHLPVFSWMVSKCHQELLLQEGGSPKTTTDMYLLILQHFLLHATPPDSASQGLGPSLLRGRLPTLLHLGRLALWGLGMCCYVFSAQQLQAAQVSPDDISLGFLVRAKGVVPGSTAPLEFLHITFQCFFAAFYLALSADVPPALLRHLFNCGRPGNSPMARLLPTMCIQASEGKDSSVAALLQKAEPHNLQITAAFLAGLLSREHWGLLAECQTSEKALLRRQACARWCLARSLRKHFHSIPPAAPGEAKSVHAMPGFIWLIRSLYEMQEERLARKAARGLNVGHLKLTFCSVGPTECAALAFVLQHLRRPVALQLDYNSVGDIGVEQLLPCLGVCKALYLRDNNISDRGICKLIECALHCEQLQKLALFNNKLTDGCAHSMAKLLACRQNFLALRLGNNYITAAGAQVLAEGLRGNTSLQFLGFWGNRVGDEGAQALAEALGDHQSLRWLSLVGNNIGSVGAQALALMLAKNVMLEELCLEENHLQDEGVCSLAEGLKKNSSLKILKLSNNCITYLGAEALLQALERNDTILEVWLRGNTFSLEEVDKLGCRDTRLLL
Chain of Induced myeloid leukemia cell differentiation protein Mcl-1 (Q07820 whole entry): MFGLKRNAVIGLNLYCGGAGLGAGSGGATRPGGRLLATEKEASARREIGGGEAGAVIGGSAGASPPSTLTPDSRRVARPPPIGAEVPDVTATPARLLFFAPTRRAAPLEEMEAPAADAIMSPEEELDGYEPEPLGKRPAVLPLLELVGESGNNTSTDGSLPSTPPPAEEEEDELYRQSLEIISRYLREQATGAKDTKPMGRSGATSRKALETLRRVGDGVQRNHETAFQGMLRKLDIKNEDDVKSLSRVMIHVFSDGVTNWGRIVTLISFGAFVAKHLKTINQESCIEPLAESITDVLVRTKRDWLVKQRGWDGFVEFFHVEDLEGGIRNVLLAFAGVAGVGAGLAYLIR
Chain of X-box-binding protein 1 (P17861 whole entry): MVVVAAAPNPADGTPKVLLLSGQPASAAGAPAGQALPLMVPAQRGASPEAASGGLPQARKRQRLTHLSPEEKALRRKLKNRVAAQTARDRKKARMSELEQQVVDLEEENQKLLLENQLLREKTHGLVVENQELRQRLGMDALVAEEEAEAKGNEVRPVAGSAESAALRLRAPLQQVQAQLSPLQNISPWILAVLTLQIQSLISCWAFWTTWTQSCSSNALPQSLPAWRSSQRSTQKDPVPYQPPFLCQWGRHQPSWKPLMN
Chain of Procathepsin L (P07711 whole entry, the tested form may be a part): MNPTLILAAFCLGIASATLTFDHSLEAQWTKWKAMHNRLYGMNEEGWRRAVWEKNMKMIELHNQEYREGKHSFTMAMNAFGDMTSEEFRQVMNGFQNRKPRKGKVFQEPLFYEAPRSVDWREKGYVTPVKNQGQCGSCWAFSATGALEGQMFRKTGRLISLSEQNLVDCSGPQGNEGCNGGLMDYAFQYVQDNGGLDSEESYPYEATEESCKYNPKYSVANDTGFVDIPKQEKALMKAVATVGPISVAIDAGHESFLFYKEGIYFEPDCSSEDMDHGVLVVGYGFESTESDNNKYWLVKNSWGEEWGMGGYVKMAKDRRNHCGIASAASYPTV
Chain of Aspartyl aminopeptidase (Q8I2J3 whole entry): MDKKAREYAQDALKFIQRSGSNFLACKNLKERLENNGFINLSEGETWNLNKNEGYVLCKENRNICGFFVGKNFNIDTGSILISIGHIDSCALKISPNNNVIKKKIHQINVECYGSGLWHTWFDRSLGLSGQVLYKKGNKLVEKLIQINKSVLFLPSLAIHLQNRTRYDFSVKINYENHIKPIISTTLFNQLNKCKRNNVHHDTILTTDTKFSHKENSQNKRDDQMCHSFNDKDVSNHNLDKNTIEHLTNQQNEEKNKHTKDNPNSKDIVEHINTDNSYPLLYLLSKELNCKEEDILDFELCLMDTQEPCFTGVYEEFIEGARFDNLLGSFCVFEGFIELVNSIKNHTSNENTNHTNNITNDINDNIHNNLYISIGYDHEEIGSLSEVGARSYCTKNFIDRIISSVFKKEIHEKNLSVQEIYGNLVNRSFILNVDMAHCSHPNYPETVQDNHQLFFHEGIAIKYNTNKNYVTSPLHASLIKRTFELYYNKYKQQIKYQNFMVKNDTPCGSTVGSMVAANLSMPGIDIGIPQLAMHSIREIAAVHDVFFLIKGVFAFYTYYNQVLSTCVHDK
Chain of Acyl-homoserine lactone acylase PvdQ (Q9I194 24-193 limits assumed): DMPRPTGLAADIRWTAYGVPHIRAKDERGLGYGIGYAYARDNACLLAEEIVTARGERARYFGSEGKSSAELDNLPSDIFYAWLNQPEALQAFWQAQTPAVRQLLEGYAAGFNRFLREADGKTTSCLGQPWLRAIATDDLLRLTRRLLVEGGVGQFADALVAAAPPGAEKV
Chain of Acyl-homoserine lactone acylase PvdQ (Q9I194 217-762 limits assumed): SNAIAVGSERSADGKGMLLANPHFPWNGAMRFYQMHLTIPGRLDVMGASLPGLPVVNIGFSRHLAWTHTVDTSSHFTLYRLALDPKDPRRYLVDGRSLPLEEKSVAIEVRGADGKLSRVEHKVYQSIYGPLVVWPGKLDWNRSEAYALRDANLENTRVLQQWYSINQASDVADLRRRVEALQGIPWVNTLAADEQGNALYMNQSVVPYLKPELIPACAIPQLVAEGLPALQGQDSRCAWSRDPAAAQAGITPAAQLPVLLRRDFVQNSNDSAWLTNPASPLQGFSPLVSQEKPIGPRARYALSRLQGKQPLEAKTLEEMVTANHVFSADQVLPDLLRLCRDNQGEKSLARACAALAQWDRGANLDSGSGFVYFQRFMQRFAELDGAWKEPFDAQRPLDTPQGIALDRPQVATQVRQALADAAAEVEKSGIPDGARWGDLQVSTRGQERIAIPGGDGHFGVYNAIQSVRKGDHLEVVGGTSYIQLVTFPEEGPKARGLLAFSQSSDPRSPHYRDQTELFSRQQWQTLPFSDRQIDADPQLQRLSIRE
Chain of Protein Tat (P04608 whole entry): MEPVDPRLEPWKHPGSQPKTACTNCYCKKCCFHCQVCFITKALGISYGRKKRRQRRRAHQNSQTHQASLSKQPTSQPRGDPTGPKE

SMILES: Cn1c(SCC(=O)Nc2sccc2C#N)nnc1-c1ccccc1
- IC50 [1]: 17.1 µM (active)

SMILES: c1coc(-c2nc3ccccc3nc2-c2ccco2)c1
- IC50 [2]: > 100 µM (active)
- IC50 [3]: > 50 µM (inactive)
- EC50 [4]: 21.6 µM (active)
- EC50 [5]: 12 µM (active)
- IC50 [6]: 12.4 µM (active)
- IC50 [7]: < 0.023 µM (not active)
- IC50 [8]: < 0.4 µM (active)

SMILES: CCCCCc1c(C)nc(Nc2ccccc2)nc1O
- Absolute IC50 (XBP1) [9]: 10 µM

SMILES: O=C(Nc1cccc(C(F)(F)F)c1)Nn1cnnc1
- IC50 [10]: 2.32 µM (active)
- IC50 [11]: > 59.6 µM (not active)

SMILES: Cc1onc(-c2c(F)cccc2Cl)c1C(=O)OCC(=O)NCc1ccco1
- IC50 [1]: 38.6 µM (not active)

SMILES: Nc1nc2ccccc2n1C(=O)Cc1ccccc1
- IC50 [12]: > 20 µM (inactive)
- IC50 [13]: > 20 µM (inactive)
- IC50 [14]: > 20 µM (inactive)
- IC50 [15]: > 20 µM (inactive)

SMILES: CCOC1=CC(=O)OC(c2ccccc2)C1 (centres undefined)
- AC50 [16]: 3.54 µM (active)

SMILES: CCCSC1=N/C(=C\C=C\c2ccco2)C(=O)S1
- IC50 [17]: 3.05 µM (inconclusive)
- CC50 [18]: > 40 µM (active)
- IC50 [19]: 11.9 µM (active)
- IC50 [7]: > 50 µM (not active)
- IC50 [20]: 9.71 µM (active)
- IC50 [8]: 3.97 µM (active)

SMILES: COc1ccc(C(=O)Nc2nc3ccccc3n2Cc2ccc(Cl)cc2)cc1
- IC50 [12]: > 20 µM (inactive)
- IC50 [13]: > 20 µM (inactive)
- IC50 [14]: > 20 µM (inactive)
- IC50 [15]: > 20 µM (inactive)

SMILES: O=C(OCc1ccc(Cl)c(Cl)c1)c1ccccn1
- IC50 [21]: 16.9 µM (active)
- AC50 [16]: 29.3 µM (active)

SMILES: O=C(Nc1ccc(Cl)c(Cl)c1)Nn1cnnc1
- IC50 [10]: 0.837 µM (active)
- IC50 [11]: > 59.6 µM (not active)

SMILES: CCC1(c2ccc(F)cc2)NC(=O)N(CC(=O)Nc2ccc(-c3nc4ccc(C)cc4s3)cc2)C1=O (centres undefined)
- Absolute IC50 (XBP1) [9]: 10 µM
- EC50 [22]: 7.37 µM (active)
- AC50 [23]: 8.98 µM (active)
- EC50 [24]: 12.3 µM (active)
- CC50 [25]: 15.5 µM (active)

SMILES: CC(C)C[C@H](NC(=O)c1[nH]cnc1C(=O)N1CCN(C(=O)OC(C)(C)C)CC1)C(=O)OC(C)(C)C
- IC50 [26]: 1.43 µM (active)
- IC50 [27]: 34.8 µM (active)
- CC50 [25]: 13.3 µM (active)
